{
  "source": "patent US7989466B2",
  "about": "“Methods to inhibit or augment an inflammatory response” (Cambridge Enterprise Limited, priority 1999, dated 2011)",
  "key": {"[1]": {"test_system": "LPS-induced serum TNF-α"}, "[2]": {"test_system": "MCP-1 induced human monocyte migration", "assay": "Human monocyte migration, MCP-1", "type": "cell-based", "settings": "n.s. = no statistically significant inhibition", "method": "(§1) Agents may also be screened in a chemotactic assay which employs human neutrophils, eosinophils, mast cells, basophils, platelets, lymphocytes or monocytes. For monocytes, 9 mls of fresh blood are transferred to a tube containing 1 ml of 3.8% sodium citrate, and left at room temperature for 15 minutes. Five mls of this anti-coagulated blood are carefully layered over 3.5 ml Polymorphprep® (Nycomed Pharma, Oslo), and centrifuged at 500 g for 35 minutes per the manufacturer's instructions. The top band at the sample/medium interface contains monocytes. The monocytes are carefully removed with a glass pipette, and reconstituted to the original volume (5 ml). The cells are washed with PBS plus 10% fetal calf serum, and centrifuged at 400 g for 10 minutes. The washing step is repeated three times before the cells are counted. Cells are resuspended at 1×10^7 cells/ml in RPMI-1640+10% fetal calf serum (FCS). The monocytes are cultured for two days at 37° C. in a humidified atmosphere of 5% CO2.\nOn day 2, the cells are counted, spun down, and reconstituted to 1×10^7 cells/ml in Gey's balanced salt solution+1 mg/ml bovine serum albumin (BSA). Chemotaxis is induced in a 48 or 96-well disposable chemotaxis chamber fitted with a 5-8 μm polycarbonate filter for monocytes, neutrophils or eosinophils, or a 3 μm filter for lymphocytes (Uguccioni et al, Eur. J. Immunol., 25, 64 (1995); Loetscher et al., J. Exy. Med., 184, 569 (1996); Weber et al., J. Immunol., 4166 (1995)) (PVP free, ChemoTX, Neuroprobe Inc., Cabin John, Md.). Twenty-nine μl of chemoattractant or control are added to the lower compartment of each well. The framed filter is aligned with the holes in the corner of the filter frame and placed over the wells. Two and one-half×10^5 monocytes in 25 μl of Gey's balanced salt solution+1 mg/ml BSA are added to the upper compartment. The agent is dissolved in MilliQ water and then serially diluted in the Gey's balanced salt solution. In most cases, the serially diluted agent is added to the upper compartment of the chemotaxis chamber. […]"}, "[3]": {"test_system": "HIV (MN)", "assay": "HIV infectivity of THP-1 cells, p24gag immunofluorescence", "type": "cell-based", "settings": "100 μM peptide, HIV strain MN, 72 hours", "method": "(a) HIV (IIIb) replication in cultures of Jurkat T-cells was estimated by measuring the supernatant reverse transcriptase activity two weeks after infection. Peptide 2 and peptide 3 were at 100 μM final concentration and SDF-1α was added at 100 ng/ml final concentration 1 hour prior to exposure to virus. Values are mean±SEM from 12 wells, expressed as the percentage of the reverse transcriptase activity in the supernatant from the control wells. The experiment shown is typical of six separate experiments. (b) HIV (IIIb) infectivity of Jurkat T-cells was estimated by staining cells treated identically to those in (a) for p24^gag expression. Values are mean±S.D. percentage of cells stained for p24gag averaged from 12 fields of view from each of two separate wells. (c) HIV (MN) infectivity of THP-1 cells measured as in (b). MIP-1α was used at 100 ng/ml final concentration. (d) Immunofluorescence micrographs of THP-1 cells 48 hours after exposure to HIV (MN) in the absence (top panel) or presence (lower panel) of 100 μM peptide 3, stained for p24^gag. Several cells in the upper panel, but not the lower panel, show strong, punctuate staining for p24^gag antigen. Both fields of view contain 40-50 cells (assessed by Hoeschst 33345 staining viewed under UV illumination conditions).\nJurkat cells following HIV infection were attached to 8-well chamber slides (Becton-Dickinson) by spinning the slides using a plate rotor in a Labofuge centrifuge (Haeraeus) at 3,000×g for 5 minutes. Attached Jurkat cells or THP-1 cells were then fixed by dipping the slides into ice-cold 70% ethanol for 90 seconds. […] A threshold was then applied to each image which was the lowest threshold that detected <1% of the pixels of an image of uninfected cells stained under identical conditions. The number of objects exceeding this threshold in each field of view were counted. This process, for example, detected 9 objects in the field of view shown in the upper panel of FIG. 54D and 1 object in the field of view shown in the lower panel. […]"}, "[4]": {"test_system": "SDF-1α induced human monocyte migration", "assay": "Human monocyte migration, SDF-1α", "type": "cell-based", "settings": "n.s. = no statistically significant inhibition", "method": "as §1\nOn day 2, the cells are counted, spun down, and reconstituted to 1×10^7 cells/ml in Gey's balanced salt solution+1 mg/ml bovine serum albumin (BSA). […]"}},
  "note": "Positions of bridges follow the written chain, without caps; N, C: chain ends. Non-standard residues stand in square brackets, D forms with d. Residues, ends and D or L forms follow the SMILES beside them. No end group written: not given here.",
  "data": [
    {"molecule": "CC[C@@H](C)[C@H]1NC(=O)[C@@H](CCC(N)=O)NC(=O)[C@H](N)CSSC[C@H](C(N)=O)NC(=O)[C@@H](CC(C)C)NC(=O)[C@@H](CC(=O)O)NC(=O)[C@H]2CCCN2C(=O)[C@@H](CCCCN)NC(=O)[C@@H](CCC(N)=O)NC(=O)[C@@H](CCCCN)NC(=O)[C@@H](Cc2c[nH]c3ccccc23)NC1=O", "note": "(H-[dC][dQ][dI][dW][dK][dQ][dK][dP][dD][dL][dC]-NH2; disulfide 1-11; N-terminus assumed)", "values": [
      {"measurement": "serum TNF-α in LPS treated mice, in words", "setting": "[1]; i.v. loading dose and s.c. bolus 30 minutes before 583 μg LPS i.p.", "value": "dose dependent decrease"}
    ]},
    {"molecule": "C=CCCCCCCCCC(=O)N[C@H]1CCC(=O)NC1=O", "note": "[A-I (NR58.4), [3S]-3-(undec-10-enoylamino)piperidine-2,6-dione]", "values": [
      {"measurement": "local tolerance at the site of injection", "setting": "[1]; mouse, in vivo, sc", "value": "irritation was noted at the site of injection"}
    ]},
    {"molecule": "EICADPKQKWVQ [peptide 3(1-12)[MCP-1]]", "values": [
      {"measurement": "% inhibition at 100 μM versus MCP-1, human monocyte migration", "setting": "[2]", "value": 108, "unit": "%"},
      {"measurement": "inhibition of HIV infectivity of THP-1 cells, p24gag staining", "setting": "[3]", "value": "more than 80%"},
      {"measurement": "inhibition of HIV infectivity of THP-1 cells, p24gag staining", "setting": "[3]; listed as second peptide, spanning amino acids 51 to 62 of human MCP-1", "value": "83±7", "unit": "%"},
      {"measurement": "% inhibition at 100 μM versus SDF-1α, human monocyte migration", "setting": "[4]", "value": 108, "unit": "%"}
    ]},
    {"molecule": "SYRRITSSKCPKEAV [peptide 2(1-15)[MCP-1]]", "values": [
      {"measurement": "% inhibition at 100 μM versus MCP-1, human monocyte migration", "setting": "[2]", "value": 20, "unit": "%"},
      {"measurement": "% inhibition at 100 μM versus MCP-1, human monocyte migration", "setting": "[2]; listed as Peptide 2 (SEQ ID NO: 3)", "value": 23, "unit": "%"},
      {"measurement": "inhibition of HIV infectivity of THP-1 cells, p24gag staining", "setting": "[3]", "value": "28±5", "unit": "%"},
      {"measurement": "% inhibition at 100 μM versus SDF-1α, human monocyte migration", "setting": "[4]", "value": "n.s."}
    ]}
  ]
}
